Reference: PubChem BioAssay (NCI)
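Grown in 96-well plates, cells were treated for 48 hours with each compound at five concentrations. Insufficient inhibition: endpoint recorded as highest concentration tested. Here, GI50 denotes the concentration required for 50% inhibition of growth. Definition used: TGI = concentration required for complete inhibition of growth.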

Tests used:
Experiment in all cases: growth of human tumour cells (NCI), 48 h
[1] = test system: A498 renal
[2] = test system: A549 NSCLC
[3] = test system: ACHN renal
[4] = test system: CAKI-1 renal
[5] = test system: COLO 205 colon
[6] = test system: DU-145 prostate
[7] = test system: EKVX NSCLC
[8] = test system: HCC-2998 colon
[9] = test system: HCT-15 colon
[10] = test system: HOP-92 NSCLC
[11] = test system: HT29 colon
[12] = test system: KM12 colon
[13] = test system: LOX IMVI melanoma
[14] = test system: MCF7 breast
[15] = test system: MDA-MB-231 breast
[16] = test system: MDA-MB-435
[17] = test system: NCI-H226 lung
[18] = test system: NCI-H23 lung
[19] = test system: NCI-H460 lung
[20] = test system: NCI-H522 lung
[21] = test system: NCI/ADR-RES ovarian
[22] = test system: OVCAR-3 ovarian
[23] = test system: OVCAR-4 ovarian
[24] = test system: OVCAR-5 ovarian
[25] = test system: OVCAR-8 ovarian
[26] = test system: PC-3 prostate
[27] = test system: RPMI-8226 leukemia
[28] = test system: RXF 393 renal
[29] = test system: SF-268 CNS
[30] = test system: SF-295 CNS
[31] = test system: SF-539 CNS
[32] = test system: SK-MEL-2 melanoma
[33] = test system: SK-MEL-28 melanoma
[34] = test system: SK-MEL-5 melanoma
[35] = test system: SK-OV-3 ovarian
[36] = test system: SN12C renal
[37] = test system: SNB-19 CNS
[38] = test system: SNB-75 CNS
[39] = test system: SW-620 colon
[40] = test system: T-47D breast
[41] = test system: TK-10 renal
[42] = test system: U251 CNS
[43] = test system: UACC-257 melanoma
[44] = test system: UACC-62 melanoma

With `CCC(C)(C)c1cc(O)c(C(C)(C)CC)cc1O` the GI50 [1] was 0.732 µM, the TGI [1] was 8.5 µM and the GI50 [2] was 3.2 µM. For the same compound, the TGI [2] was 11.9 µM, the GI50 [3] was 4.62 µM and the TGI [3] was 16.1 µM. The GI50 [4] was 2.44 µM, the TGI [4] was 7.74 µM and the GI50 [5] was 2.42 µM. It also gave a TGI [5] of 5.28 µM, a GI50 [6] of 4.39 µM and a TGI [6] of 17.1 µM. For the same compound, the GI50 [7] was 2.54 µM, the TGI [7] was 14.6 µM and the GI50 [8] was 2.3 µM. The TGI [8] was 5.36 µM, the GI50 [9] was 3.66 µM and the TGI [9] was 15.1 µM. For the same compound, the GI50 [10] was 1.63 µM, the TGI [10] was 5.62 µM and the GI50 [11] was 2.13 µM. The TGI [11] was 5.27 µM, the GI50 [12] was 3.52 µM and the TGI [12] was 12.6 µM. The GI50 [13] was 2.1 µM, the TGI [13] was 4.62 µM and the GI50 [14] was 2.46 µM. The TGI [14] was 11.6 µM, the GI50 [15] was 2.35 µM and the TGI [15] was 8.04 µM. The GI50 [16] was 2.62 µM, the TGI [16] was 10.9 µM and the GI50 [17] was 3.63 µM. It also gave a TGI [17] of 15.2 µM, a GI50 [18] of 3.18 µM and a TGI [18] of 12.4 µM. For the same compound, the GI50 [19] was 2.25 µM, the TGI [19] was 6.53 µM and the GI50 [20] was 1.98 µM. For the same compound, the TGI [20] was 6.03 µM, the GI50 [21] was 2.96 µM and the TGI [21] was 11.3 µM. It also gave a GI50 [22] of 2.78 µM, a TGI [22] of 7.54 µM and a GI50 [23] of 3.26 µM. The TGI [23] was 14.1 µM, the GI50 [24] was 4.97 µM and the TGI [24] was 17.6 µM. The GI50 [25] was 4.48 µM, the TGI [25] was 23.5 µM and the GI50 [26] was 3.43 µM. The TGI [26] was 13.2 µM, the GI50 [27] was 2.41 µM and the TGI [27] was 9.09 µM. The GI50 [28] was 2.69 µM, the TGI [28] was 7.25 µM and the GI50 [29] was 3.92 µM. For the same compound, the TGI [29] was 15.6 µM, the GI50 [30] was 2.25 µM and the TGI [30] was 5.18 µM. For the same compound, the GI50 [31] was 2.7 µM, the TGI [31] was 9.23 µM and the GI50 [32] was 1.85 µM. The TGI [32] was 4.33 µM, the GI50 [33] was 2.82 µM and the TGI [33] was 10.9 µM. It also gave a GI50 [34] of 2.2 µM, a TGI [34] of 5.26 µM and a GI50 [35] of 4.41 µM. For the same compound, the TGI [35] was 14.9 µM, the GI50 [36] was 3.2 µM and the TGI [36] was 16.4 µM. The GI50 [37] was 2.69 µM, the TGI [37] was 12.6 µM and the GI50 [38] was 3.14 µM. It also gave a TGI [38] of 16.5 µM, a GI50 [39] of 2.35 µM and a TGI [39] of 6.89 µM. It also gave a GI50 [40] of 4.56 µM, a TGI [40] of 19.5 µM and a GI50 [41] of 2.46 µM. The TGI [41] was 8.19 µM, the GI50 [42] was 2.18 µM and the TGI [42] was 6.23 µM. It also gave a GI50 [43] of 3.44 µM, a TGI [43] of 12.1 µM and a GI50 [44] of 2.28 µM. The TGI [44] was 6.84 µM.
